Measured values taken from patent US9567625B2, “Method for detection of microorganism and kit for detection of microorganism” (MORINAGA MILK INDUSTRY CO., LTD., priority 2006, dated 2017).

Experiments:
[1] = test system: 16S rRNA gene of Klebsiella; assay: PCR targeting the 16S rRNA gene after EMA treatment, electrophoresis; type: cell-based, Klebsiella oxytoca; conditions: EMA-treated injured cells of Klebsiella, EMA 10 μl of 1000 μg/ml per 1 ml, 4° C. 30 minutes, visible light 10 minutes
Method: (§1) The live cell counts of these live cell suspensions were Escherichia coli: 3.2×10^8 cfu/ml, Citrobacter: 6.7×10^7 cfu/ml, Salmonella: 1.9×10^8 cfu/ml, and Klebsiella: 4.8×10^8 cfu/ml.
(§2) 10 μl of an EMA solution prepared at a concentration of 1000 μg/ml by dissolving EMA (Sigma, catalog number: E2028) in sterilized water, and filtering the solution through a 0.45-μm microfilter was added to each of the suspensions of the gram-negative bacteria (live cells and injured cells) and gram-positive bacteria (live cells and injured cells) in a volume of 1 ml, and the mixture was left at 4° C. for 30 minutes under light shielding. Then, the suspension was placed on ice, and irradiated with visible light of 500 W from a lamp (FLOOD PRF, 100 V, 500 W, Iwasaki Electric Co., Ltd.) disposed at a distance of 20 cm from the suspension for 10 minutes. The above steps of adding the EMA solution and irradiating visible light may also be referred to as the “EMA treatment”.
(§3) 990 μl of physiological saline was added to each microtube, and the mixture was sufficiently stirred. […]

[2] = test system: 16S rRNA gene of Listeria; assay: PCR targeting the 16S rRNA gene after EMA treatment and topoisomerase poison or DNA gyrase poison treatment; type: cell-based, Listeria monocytogenes; conditions: Listeria injured cells
Method: (§4) The live cell count of the live cell suspension was 1.3×10^8 cfu/ml
(§5) Therefore, the time for leaving the suspension at 4° C. under light shielding after the addition of EMA was shortened to 5 minutes, and the visible light irradiation time was also shortened to 5 minutes.
(§6) As described above, 1 tube of 1 ml EMA-untreated live cell suspension, […] of 1 ml EMA-treated live cell suspension, 1 tube of 1 ml EMA-untreated injured cell suspension, and 7 tubes of 1 ml EMA-treated injured cell suspension were prepared.
(§7) The EMA-treated live cell and injured cell suspensions were divided into 6 sets, each of which consisted of 1 tube of the live cell suspension and 1 tube of injured cell suspension.
The “PCR thermal cycle profile for amplification of 16S rRNA gene” mentioned in Example 3, 3-2) (Table 3) was applied.
(§8) Each of the DNA solutions prepared in 2-3) was diluted to 15 ng/μl with TE buffer, and 10 μl of the diluted solution was used as a template DNA in 3-1-1) or 3-2-1) mentioned above. That is, 150 ng of the template DNA was contained in 50 μl of the PCR mixture. As a negative control, 10 μl of TE buffer was used.
According to the PCR thermal cycle profile shown in 3-2-2) or 3-2-3) mentioned above, PCR was performed by using a real-time PCR apparatus i Cycler® (Biorad, model number: iQ).
(§9) For the detection of the hlyA gene amplification product, 3% agarose gel was used.

[3] = test system: hlyA gene of Listeria; assay: PCR targeting the hlyA gene after EMA treatment and topoisomerase poison or DNA gyrase poison treatment; type: cell-based, Listeria monocytogenes; conditions: Listeria injured cells
Method: as §4, §5, §6, §7
(§10) A master mix (total volume: 50 μl) of the following composition was prepared. • Ex-Taq® (Takara Shuzo, catalog number: RR001B; TaKaRa Ex Taq enzyme): 0.25 μl • 10× Ex-Taq® Buffer (Takara Shuzo, catalog number: RR001B): 5 μl • dNTP mixture (Takara Shuzo, catalog number: RR001B): 4 μl • 5 pmol/μl SEQ ID NO: 7 (hlyA-F) DNA: 2.5 μl • 5 pmol/μl SEQ ID NO: 8 (hlyA-R) DNA: 2.5 μl • 2×SYBR® Green (cyanine dye) (BMA, catalog number: 50513): 10 μl • Sterilized water: 15.75 μl • Template DNA (15 ng/μl): 10 μl 3-1-2) PCR Thermal Cycle Profile for Amplification of hlyA Gene
as §8, with “2-3) mentioned above” for “2-3)”, “3-1-1)” for “3-1-1) or 3-2-1)”
According to the PCR thermal cycle profile shown in 3-1-2) mentioned above, PCR was performed by using a real-time PCR apparatus i Cycler® (Biorad, model number: iQ).
as §9

[4] = test system: 16S rRNA gene of Citrobacter; assay: PCR targeting the 16S rRNA gene after EMA treatment, electrophoresis; type: cell-based, Citrobacter koseri; conditions: EMA-treated injured cells of Citrobacter, EMA 10 μl of 1000 μg/ml per 1 ml, 4° C. 30 minutes, visible light 10 minutes
Method: as §1, §2, §3

[5] = test system: 23S rRNA gene of gram-negative bacteria and gram-positive bacteria; assay: PCR targeting the 23S rRNA gene after EMA treatment, electrophoresis; type: cell-based; conditions: 150 ng template DNA in 50 μl
Method: as §1
(§11) The live cell counts of these live cell suspensions were Bacillus: 3.0×10^7 cfu/ml, Listeria: 1.3×10^8 cfu/ml, and Staphylococcus: 1.1×10^6 cfu/ml.
as §2, §3

[6] = test system: 16S rRNA gene of the other bacteria; assay: PCR targeting the 16S rRNA gene after EMA treatment, electrophoresis; type: cell-based; conditions: EMA-treated injured cells of the other bacteria, EMA 10 μl of 1000 μg/ml per 1 ml, 4° C. 30 minutes, visible light 10 minutes
Method: as §1, §11, §2, §3

[7] = test system: 23S rRNA gene of Enterobacter; assay: Real-time PCR and TM analysis targeting the 23S rRNA gene after ciprofloxacin treatment; type: cell-based, Enterobacter sakazakii; conditions: ciprofloxacin 72 hours; for result of PCR: PCR terminated after 27 cycles
Method: as §10, with “enzyme:” for “enzyme):”, “1 (23S-F)” for “7 (hlyA-F)”, “2 (23S-R) DNA: 2.5 μl • 5 pmol/μl SEQ ID NO: 3 (23S-MF) DNA: 2.5 μl • 5 pmol/μl SEQ ID NO: 4 (23S-MR)” for “8 (hlyA-R)”, “μl” for “μl 3-1-2) PCR Thermal Cycle Profile for Amplification of hlyA Gene”
The primers of SEQ ID NOS: 1 and 2 are primers for amplifying substantially all the region of 23S rRNA, and they provide an amplification fragment of about 2840 bp mainly from gram-negative bacteria. The primers of SEQ ID NOS: 3 and 4 correspond to the center region of 23S rRNA, and they provide an amplification fragment of about 900 bp from gram-positive bacteria (also from gram negative bacteria).
Each of the DNA solutions prepared in 1-3) was diluted to 15 ng/μl with TE buffer, and 10 μl of the diluted solution was used as a template DNA in 2-1). That is, 150 ng of the template DNA was contained in 50 μl of the PCR reaction mixture. As a negative control, 10 μl of TE buffer was used.
According to the PCR thermal cycle profile shown in 2-2) mentioned above, PCR and TM analysis (melting temperature analysis) of the amplification product were performed by using a real-time PCR apparatus i Cycler® (Biorad, model number: iQ). The threshold value (boundary value) of real-time PCR was set to a value obtained by multiplying the standard deviation SD of fluorescence amounts obtained with SYBR® Green (cyanine dye) for 0 to 10 cycles by 10. In each real-time PCR amplification curve, number of cycle showing a value exceeding the threshold value is referred to as “Ct value” hereafter.

[8] = test system: 23S rRNA gene of Listeria; assay: Real-time PCR targeting the 23S rRNA gene after ciprofloxacin treatment; type: cell-based, Listeria monocytogenes; conditions: PCR terminated after 20 cycles
Method: as §10, with “enzyme:” for “enzyme):”, “1 (23S-F)” for “7 (hlyA-F)”, “2 (23S-R) DNA: 2.5 μl • 5 pmol/μl SEQ ID NO: 3 (23S-MF) DNA: 2.5 μl • 5 pmol/μl SEQ ID NO: 4 (23S-MR)” for “8 (hlyA-R)”, “μl” for “μl 3-1-2) PCR Thermal Cycle Profile for Amplification of hlyA Gene”
The primers of SEQ ID NOS: 1 and 2 are primers for amplifying substantially all the region of 23S rRNA, and they provide an amplification fragment of about 2840 bp mainly from gram-negative bacteria. […]
According to the PCR thermal cycle profile shown in 2-2) mentioned above, PCR and TM analysis (melting temperature analysis) of the amplification product were performed by using a real-time PCR apparatus i Cycler® (Biorad, model number: iQ). The threshold value (boundary value) of real-time PCR was set to a value obtained by multiplying the standard deviation SD of fluorescence amounts obtained with SYBR® Green (cyanine dye) for 0 to 10 cycles by 10. […]

[9] = EMA treatment alone (5 minutes, visible light 5 minutes)
[10] = poison used together with EMA treatment, 30° C. for 30 minutes

SMILES: CC[n+]1c(-c2ccccc2)c2cc(N=[N+]=[N-])ccc2c2ccc(N)cc21 [EMA, ethidium monoazide]
- PCR amplification product [1]: no PCR amplification product was observed
- inhibition of DNA amplification [2, 9]: only slightly inhibited
- inhibition of DNA amplification [3, 9]: only slightly inhibited
- PCR amplification product [4]: no PCR amplification product was observed
- inhibition of PCR ([5]; injured cells at a level of 10^8 cfu/ml): completely inhibited
- inhibition of PCR ([5]; live cells): not substantially completely inhibited
- PCR amplification product [6]: amplification products were observed

SMILES: CC[C@@]1(O)C(=O)OCc2c1cc1n(c2=O)Cc2cc3ccccc3nc2-1 [camptothecin]
- inhibition of DNA amplification [2, 10]: markedly inhibited

SMILES: O=C1c2c(O)ccc(O)c2C(=O)c2c(NCCNCCO)ccc(NCCNCCO)c21 [mitoxantrone]
- inhibition of DNA amplification [3, 10]: markedly inhibited

SMILES: Cc1c2ccncc2c(C)c2c1[nH]c1ccccc12 [ellipticine]
- inhibition of DNA amplification [2, 10]: markedly inhibited

SMILES: COc1cc([C@@H]2c3cc4c(cc3[C@@H](O[C@@H]3O[C@@H]5CO[C@@H](C)O[C@H]5[C@H](O)[C@H]3O)[C@H]3COC(=O)[C@H]23)OCO4)cc(OC)c1O [etoposide]
- inhibition of DNA amplification [2, 10]: markedly inhibited
- inhibition of DNA amplification [3, 10]: markedly inhibited

SMILES: O=C(O)c1cn(C2CC2)c2cc(N3CCNCC3)c(F)cc2c1=O [ciprofloxacin]
- Ct (injured cells, 72 hours of Cip)−Ct (injured cells, No Cip) ([7]; Enterobacter injured cells): 17
- result of PCR ([7]; Enterobacter injured cells): negative
- Ct (live cells, 72 hours of Cip)−Ct (live cells, No Cip) ([7]; Enterobacter live cells): 13
- result of PCR ([7]; Enterobacter live cells): positive
- TM pattern analysis of the PCR amplification product ([7]; Enterobacter sakazakii injured cells): is not the targeted amplification product
- TM pattern analysis of the PCR amplification product ([7]; Enterobacter sakazakii live cells): corresponds to the 23S rRNA gene as the target
- result of PCR ([8]; Listeria injured cells): negative
- result of PCR ([8]; Listeria live cells): positive
